In patent publication US7612200B2, “Inhibitors of protein kinases” (Locus Pharmaceuticals, Inc., priority 2004, dated 2009):

Tests used:
Assay type in all cases: biochemical
EGFR = EGFR (Homo sapiens, UniProt P00533); experiment: Kinase activity at ATP Km,app, EGFR; settings: compound 2 μM
Flt3 = biological target: T1, Flt3 (Homo sapiens, UniProt P36888); experiment: Kinase activity at ATP Km,app, Flt3; settings: 40 min, compound 2 μM
T1 sequence (P36888 27-993): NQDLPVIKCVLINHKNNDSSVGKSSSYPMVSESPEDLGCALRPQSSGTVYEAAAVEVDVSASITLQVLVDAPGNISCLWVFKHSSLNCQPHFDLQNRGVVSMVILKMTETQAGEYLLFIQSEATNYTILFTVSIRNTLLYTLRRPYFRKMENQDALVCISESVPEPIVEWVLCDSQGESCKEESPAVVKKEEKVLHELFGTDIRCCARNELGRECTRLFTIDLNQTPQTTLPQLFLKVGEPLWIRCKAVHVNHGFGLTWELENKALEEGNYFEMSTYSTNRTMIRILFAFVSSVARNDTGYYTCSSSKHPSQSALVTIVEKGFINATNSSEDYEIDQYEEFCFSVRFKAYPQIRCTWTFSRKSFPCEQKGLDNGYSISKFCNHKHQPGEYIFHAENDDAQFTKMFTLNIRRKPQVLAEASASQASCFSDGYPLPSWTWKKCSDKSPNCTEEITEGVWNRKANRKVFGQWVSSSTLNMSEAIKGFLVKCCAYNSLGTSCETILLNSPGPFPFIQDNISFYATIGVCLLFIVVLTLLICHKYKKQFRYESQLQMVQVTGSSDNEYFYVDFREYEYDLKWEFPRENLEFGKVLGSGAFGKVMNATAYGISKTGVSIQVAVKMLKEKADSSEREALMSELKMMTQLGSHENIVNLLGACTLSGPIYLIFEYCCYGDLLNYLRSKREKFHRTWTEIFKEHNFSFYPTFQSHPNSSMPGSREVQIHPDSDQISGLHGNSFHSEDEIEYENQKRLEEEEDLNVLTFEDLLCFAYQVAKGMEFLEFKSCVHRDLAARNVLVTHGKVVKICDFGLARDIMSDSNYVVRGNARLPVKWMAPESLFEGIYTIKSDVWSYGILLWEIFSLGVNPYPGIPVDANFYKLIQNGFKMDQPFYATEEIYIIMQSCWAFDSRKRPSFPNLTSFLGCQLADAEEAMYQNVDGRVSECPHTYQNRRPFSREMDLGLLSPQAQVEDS
Protocol: (§1) Flt3 Kinase Activity: In a final reaction volume of 25 μl, Flt3 (h) (5-10 mU) is incubated with 8 mM MOPS pH 7.0, 0.2 mM EDTA, 50 μM EAIYAAPFAKKK, 10 mM MgAcetate and [γ-^33P-ATP] (specific activity approx. 500 cpm/pmol, concentration as required). The reaction is initiated by the addition of the MgATP mix. After incubation for 40 minutes at room temperature, the reaction is stopped by the addition of 5 ml of a 3% phosphoric acid solution. 10 ml of the reaction is then spotted onto a P30 filtermat and washed three times for 5 minutes in 75 mM phosphoric acid and once in methanol prior to drying and scintillation counting.

IGF1R = IGF1R (Homo sapiens, UniProt P08069); experiment: Kinase activity at ATP Km,app, IGF1R; settings: 40 min, compound 2 μM
Protocol: IGF-1R Kinase Activity In a final reaction volume of 25 μl, IGF-1R (h) (5-10 mU) is incubated with 50 mM Tris pH 7.5, 0.1 mM EGTA, 0.1 mM Na3VO4, 0.1% β-mercaptoethanol, 250 μM KKKSPEGYVNIEFG, 10 mM MnCl2, 10 mM MgAcetate and [γ-^33P-ATP] (specific activity approx. 500 cpm/pmol, concentration as required). The reaction is initiated by the addition of the MgATP mix. After incubation for 40 minutes at room temperature, the reaction is stopped by the addition of 5 μl of a 3% phosphoric acid solution. 10 μl of the reaction is then spotted onto a P30 filtermat and washed three times for 5 minutes in 75 mM phosphoric acid and once in methanol prior to drying and scintillation counting.

PKC-alpha = PKC-alpha (Homo sapiens, UniProt P17252); experiment: Kinase activity at ATP Km,app, PKC-alpha; settings: 40 min, compound 2 μM
Protocol: as §1, with “PKCα” for “Flt3”, “20” for “8”, “HEPES” for “MOPS”, “7.4, 0.03% Triton X-100, 0.1” for “7.0, 0.2”, “CaCl2, 0.1 mg/ml phosphatidylserine, 10 μg/ml diacylglycerol, 0.1 mg/ml histone Hi,” for “EDTA, 50 μM EAIYAAPFAKKK,”, “μl” for “ml”

IGF1R, sequence (P08069 31-1367): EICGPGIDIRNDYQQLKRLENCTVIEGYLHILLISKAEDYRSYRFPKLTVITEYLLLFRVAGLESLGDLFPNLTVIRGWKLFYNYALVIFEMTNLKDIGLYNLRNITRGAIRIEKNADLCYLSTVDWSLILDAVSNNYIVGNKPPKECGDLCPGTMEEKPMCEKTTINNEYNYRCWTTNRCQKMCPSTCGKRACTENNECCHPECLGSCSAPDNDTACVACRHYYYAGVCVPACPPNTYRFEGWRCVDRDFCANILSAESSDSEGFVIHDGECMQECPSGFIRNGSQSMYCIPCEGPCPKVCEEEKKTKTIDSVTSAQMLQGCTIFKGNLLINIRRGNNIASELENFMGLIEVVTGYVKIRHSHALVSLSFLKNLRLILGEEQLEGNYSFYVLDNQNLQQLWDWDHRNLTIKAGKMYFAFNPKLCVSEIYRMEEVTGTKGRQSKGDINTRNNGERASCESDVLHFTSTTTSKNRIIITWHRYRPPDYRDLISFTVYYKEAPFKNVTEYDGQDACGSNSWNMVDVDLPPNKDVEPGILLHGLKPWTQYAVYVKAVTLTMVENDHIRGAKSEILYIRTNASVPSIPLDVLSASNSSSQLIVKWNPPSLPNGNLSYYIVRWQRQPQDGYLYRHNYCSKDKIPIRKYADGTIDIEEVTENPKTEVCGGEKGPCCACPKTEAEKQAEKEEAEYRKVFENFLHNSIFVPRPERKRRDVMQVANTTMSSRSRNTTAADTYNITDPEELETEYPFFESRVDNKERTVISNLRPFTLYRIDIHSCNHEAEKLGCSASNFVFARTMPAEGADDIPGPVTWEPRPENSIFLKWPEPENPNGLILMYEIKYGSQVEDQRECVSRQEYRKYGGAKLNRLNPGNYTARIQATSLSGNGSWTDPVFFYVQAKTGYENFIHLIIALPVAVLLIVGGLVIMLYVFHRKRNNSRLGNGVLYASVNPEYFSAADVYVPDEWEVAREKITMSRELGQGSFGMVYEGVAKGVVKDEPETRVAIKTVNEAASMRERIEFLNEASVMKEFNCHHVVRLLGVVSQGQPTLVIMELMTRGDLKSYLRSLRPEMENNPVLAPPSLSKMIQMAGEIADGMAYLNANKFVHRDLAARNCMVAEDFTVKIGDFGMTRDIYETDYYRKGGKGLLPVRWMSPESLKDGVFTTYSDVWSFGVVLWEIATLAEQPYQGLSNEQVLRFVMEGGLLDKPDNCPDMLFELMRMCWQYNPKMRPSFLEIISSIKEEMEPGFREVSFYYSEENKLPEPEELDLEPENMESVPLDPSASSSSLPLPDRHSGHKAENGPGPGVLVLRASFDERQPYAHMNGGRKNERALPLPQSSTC
EGFR, sequence (P00533 25-1210, species assumed): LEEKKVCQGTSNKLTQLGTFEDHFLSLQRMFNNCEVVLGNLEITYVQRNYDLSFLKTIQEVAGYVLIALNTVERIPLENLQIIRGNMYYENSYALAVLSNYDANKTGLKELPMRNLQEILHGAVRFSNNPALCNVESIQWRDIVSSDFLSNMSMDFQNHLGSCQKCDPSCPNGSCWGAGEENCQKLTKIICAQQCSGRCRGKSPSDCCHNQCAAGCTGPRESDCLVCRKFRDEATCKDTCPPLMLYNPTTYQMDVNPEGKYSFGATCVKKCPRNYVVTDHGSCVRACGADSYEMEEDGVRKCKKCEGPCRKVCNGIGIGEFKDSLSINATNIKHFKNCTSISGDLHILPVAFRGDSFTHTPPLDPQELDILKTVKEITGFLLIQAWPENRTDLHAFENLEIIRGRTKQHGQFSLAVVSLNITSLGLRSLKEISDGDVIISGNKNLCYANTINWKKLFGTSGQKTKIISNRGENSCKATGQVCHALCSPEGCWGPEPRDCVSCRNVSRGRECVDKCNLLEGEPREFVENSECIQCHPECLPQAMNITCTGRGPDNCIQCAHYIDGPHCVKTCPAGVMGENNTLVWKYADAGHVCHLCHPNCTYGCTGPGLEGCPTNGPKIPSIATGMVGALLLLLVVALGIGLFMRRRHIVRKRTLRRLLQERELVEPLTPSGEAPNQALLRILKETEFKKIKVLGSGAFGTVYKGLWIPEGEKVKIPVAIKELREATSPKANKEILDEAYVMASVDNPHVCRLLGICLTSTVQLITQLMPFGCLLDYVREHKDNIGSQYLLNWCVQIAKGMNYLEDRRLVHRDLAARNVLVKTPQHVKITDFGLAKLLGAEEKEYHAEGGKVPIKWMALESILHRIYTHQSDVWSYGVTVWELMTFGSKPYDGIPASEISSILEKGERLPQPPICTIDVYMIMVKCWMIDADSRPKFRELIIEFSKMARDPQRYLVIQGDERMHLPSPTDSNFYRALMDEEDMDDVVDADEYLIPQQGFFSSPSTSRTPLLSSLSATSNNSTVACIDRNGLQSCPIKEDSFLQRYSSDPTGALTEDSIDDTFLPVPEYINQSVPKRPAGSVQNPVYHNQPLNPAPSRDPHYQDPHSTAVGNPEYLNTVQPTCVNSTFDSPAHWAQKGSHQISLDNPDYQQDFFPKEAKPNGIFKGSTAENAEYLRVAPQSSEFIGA

| SMILES | % Inhibition at ATP Km,app (EGFR) | inhibition at 2 µM (Flt3) | inhibition at 2 µM (IGF1R) | inhibition at 2 µM (PKC-alpha) |
| --- | --- | --- | --- | --- |
| CC(C)(C)c1cc(C(=O)N2CCNC(=O)C2)c(NC(=O)Nc2ccc(Oc3ccncc3)cc2)s1 [Example 2, 1-(5-tert-Butyl-3-(3-oxo-piperazine-1-carbonyl)thiophen-2-yl)-3-(4-(pyridin-4-yloxy)phenyl)urea] | 0-25% | 76 to 100% | 0 to 25% | 0 to 25% |
| CC(C)(C)c1cc(C(=O)N2CCNC(=O)CC2)c(NC(=O)Nc2ccc(Oc3ccncc3)cc2)s1 [Example 4, 1-(5-tert-Butyl-3-(5-oxo-[1,4]diazepane-1-carbonyl)thiophen-2-yl)-3-(4-(pyridin-4-yloxy)phenyl)urea] | 0-25% | 76 to 100% | 0 to 25% | 0 to 25% |
| CC(C)(C)c1cc(C(=O)N2CCNS(=O)(=O)CC2)c(NC(=O)Nc2ccc(Oc3ccncc3)cc2)s1 [Example 1, 1-(5-tert-Butyl-3-(1,1-dioxo-1λ^6-[1,2,5]thiadiazepane-5-carbonyl)thiophen-2-yl)-3-(4-(pyridin-4-yloxy)phenyl)urea] | 0-25% | 76 to 100% | 0 to 25% | 0 to 25% |
